Experimental data published in PubChem BioAssay (NCI).
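Following 48 hours of exposure in 96-well plates, responses at five concentrations were used to interpolate endpoints linearly. GI50 marks 50% less growth. At the TGI there is no net growth.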

Assays:
Assay in all cases: NCI anticancer screen, dose series, 48 h
OVCAR-8 ovarian = tested on: OVCAR-8 ovarian
IGROV1 ovarian = tested on: IGROV1 ovarian
EKVX NSCLC = tested on: EKVX NSCLC
HCT-15 colon = tested on: HCT-15 colon
HS 578T breast = tested on: HS 578T breast
UO-31 renal = tested on: UO-31 renal
K-562 leukemia = tested on: K-562 leukemia
RXF 393 renal = tested on: RXF 393 renal
SN12C renal = tested on: SN12C renal
OVCAR-4 ovarian = tested on: OVCAR-4 ovarian
BT-549 breast = tested on: BT-549 breast
HT29 colon = tested on: HT29 colon
MOLT-4 leukemia = tested on: MOLT-4 leukemia
SNB-75 CNS = tested on: SNB-75 CNS
MDA-MB-435 = tested on: MDA-MB-435
SK-MEL-28 melanoma = tested on: SK-MEL-28 melanoma
A498 renal = tested on: A498 renal
786-0 renal = tested on: 786-0 renal
SR leukemia = tested on: SR leukemia
NCI-H23 lung = tested on: NCI-H23 lung
SF-268 CNS = tested on: SF-268 CNS
MCF7 breast = tested on: MCF7 breast
RPMI-8226 leukemia = tested on: RPMI-8226 leukemia
HOP-62 NSCLC = tested on: HOP-62 NSCLC
PC-3 prostate = tested on: PC-3 prostate
UACC-257 melanoma = tested on: UACC-257 melanoma
HCT-116 colon = tested on: HCT-116 colon
COLO 205 colon = tested on: COLO 205 colon
U251 CNS = tested on: U251 CNS
SK-OV-3 ovarian = tested on: SK-OV-3 ovarian
HL-60(TB) leukemia = tested on: HL-60(TB) leukemia
MALME-3M melanoma = tested on: MALME-3M melanoma
CAKI-1 renal = tested on: CAKI-1 renal
NCI-H460 lung = tested on: NCI-H460 lung
SK-MEL-2 melanoma = tested on: SK-MEL-2 melanoma
LOX IMVI melanoma = tested on: LOX IMVI melanoma
SNB-19 CNS = tested on: SNB-19 CNS
SW-620 colon = tested on: SW-620 colon
A549 NSCLC = tested on: A549 NSCLC
M14 melanoma = tested on: M14 melanoma
MDA-MB-231 breast = tested on: MDA-MB-231 breast
T-47D breast = tested on: T-47D breast
HOP-92 NSCLC = tested on: HOP-92 NSCLC
KM12 colon = tested on: KM12 colon
NCI/ADR-RES ovarian = tested on: NCI/ADR-RES ovarian
CCRF-CEM leukemia = tested on: CCRF-CEM leukemia
UACC-62 melanoma = tested on: UACC-62 melanoma
SF-539 CNS = tested on: SF-539 CNS
NCI-H522 lung = tested on: NCI-H522 lung
NCI-H226 lung = tested on: NCI-H226 lung
SF-295 CNS = tested on: SF-295 CNS
TK-10 renal = tested on: TK-10 renal
OVCAR-3 ovarian = tested on: OVCAR-3 ovarian
HCC-2998 colon = tested on: HCC-2998 colon
DU-145 prostate = tested on: DU-145 prostate
OVCAR-5 ovarian = tested on: OVCAR-5 ovarian
ACHN renal = tested on: ACHN renal
SK-MEL-5 melanoma = tested on: SK-MEL-5 melanoma

## O=C(c1ccccc1)c1c(C(F)(F)F)n([O-])c2ccc(C(F)(F)F)cc2[n+]1=O
OVCAR-8 ovarian
  GI50: 1200 nM
  TGI: 3570 nM
IGROV1 ovarian
  GI50: 205 nM
  TGI: 408 nM
EKVX NSCLC
  GI50: 234 nM
  TGI: 597 nM
HCT-15 colon
  GI50: 277 nM
  TGI: 711 nM
HS 578T breast
  GI50: 537 nM
  TGI: 1330 nM
UO-31 renal
  GI50: 173 nM
  TGI: 322 nM
K-562 leukemia
  GI50: 319 nM
  TGI: 779 nM
RXF 393 renal
  GI50: 175 nM
  TGI: 342 nM
SN12C renal
  GI50: 215 nM
  TGI: 468 nM
OVCAR-4 ovarian
  GI50: 156 nM
  TGI: 360 nM
BT-549 breast
  GI50: 125 nM
  TGI: 269 nM
HT29 colon
  GI50: 177 nM
  TGI: 349 nM
MOLT-4 leukemia
  GI50: 90.2 nM
  TGI: 313 nM
SNB-75 CNS
  GI50: 520 nM
  TGI: 1130 nM
MDA-MB-435
  GI50: 567 nM
  TGI: 1280 nM
SK-MEL-28 melanoma
  GI50: 507 nM
  TGI: 957 nM
A498 renal
  GI50: 1700 nM
  TGI: 3110 nM
786-0 renal
  GI50: 167 nM
  TGI: 307 nM
SR leukemia
  GI50: 109 nM
  TGI: 393 nM
NCI-H23 lung
  GI50: 503 nM
  TGI: 1130 nM
SF-268 CNS
  GI50: 195 nM
  TGI: 449 nM
MCF7 breast
  GI50: 305 nM
  TGI: 820 nM
RPMI-8226 leukemia
  GI50: 286 nM
  TGI: 883 nM
HOP-62 NSCLC
  GI50: 347 nM
  TGI: 765 nM
PC-3 prostate
  GI50: 94.8 nM
  TGI: 229 nM
UACC-257 melanoma
  GI50: 295 nM
  TGI: 968 nM
HCT-116 colon
  GI50: 138 nM
  TGI: 270 nM
COLO 205 colon
  GI50: 384 nM
  TGI: 879 nM
U251 CNS
  GI50: 166 nM
  TGI: 305 nM
SK-OV-3 ovarian
  GI50: 988 nM
  TGI: 2380 nM
HL-60(TB) leukemia
  GI50: 84 nM
  TGI: 309 nM
MALME-3M melanoma
  GI50: 545 nM
  TGI: 1200 nM
CAKI-1 renal
  GI50: 193 nM
  TGI: 348 nM
NCI-H460 lung
  GI50: 232 nM
  TGI: 587 nM
SK-MEL-2 melanoma
  GI50: 1240 nM
  TGI: 2960 nM
LOX IMVI melanoma
  GI50: 51.3 nM
  TGI: 95.4 nM
SNB-19 CNS
  GI50: 830 nM
  TGI: 2100 nM
SW-620 colon
  GI50: 135 nM
  TGI: 279 nM
A549 NSCLC
  GI50: 140 nM
  TGI: 278 nM
M14 melanoma
  GI50: 619 nM
  TGI: 1470 nM
MDA-MB-231 breast
  GI50: 185 nM
  TGI: 354 nM
T-47D breast
  GI50: 372 nM
  TGI: 1080 nM
HOP-92 NSCLC
  GI50: 160 nM
  TGI: 318 nM
KM12 colon
  GI50: 385 nM
  TGI: 903 nM
NCI/ADR-RES ovarian
  GI50: 239 nM
  TGI: 688 nM
CCRF-CEM leukemia
  GI50: 281 nM
  TGI: 1410 nM
UACC-62 melanoma
  GI50: 665 nM
  TGI: 1860 nM
SF-539 CNS
  GI50: 315 nM
  TGI: 745 nM
NCI-H522 lung
  GI50: 306 nM
  TGI: 971 nM
NCI-H226 lung
  GI50: 524 nM
  TGI: 1200 nM
SF-295 CNS
  GI50: 548 nM
  TGI: 1110 nM
TK-10 renal
  GI50: 636 nM
  TGI: 1350 nM
OVCAR-3 ovarian
  GI50: 252 nM
  TGI: 660 nM
HCC-2998 colon
  GI50: 622 nM
  TGI: 1280 nM
DU-145 prostate
  GI50: 289 nM
  TGI: 698 nM
OVCAR-5 ovarian
  GI50: 264 nM
  TGI: 753 nM
ACHN renal
  GI50: 102 nM
  TGI: 260 nM
SK-MEL-5 melanoma
  GI50: 504 nM
  TGI: 933 nM
